In patent US10759809B2 (priority 2017, dated 2020):
Structures can show the parent of a compound that is named as a salt.

Experiments:
Mice = details: both, mouse, in vivo
SD rats = details: male, rat, in vivo
SD rat = assay: animal or person; type: in vivo; details: po, 1 h
Kunming mice = assay: animal or person; type: in vivo; details: Mus musculus, po, 1 h

Compound | Inhibition of activated carbon excretion (Mice) [%] | Residence time in drug-side box (Mean ± S, s) (SD rats) [s] | ED50 (SD rat) [mg/kg] | ED50 (Kunming mice) [mg/kg]
[2H]C([2H])(C1CC1)N1CC[C@]23c4c5ccc(O)c4O[C@H]2[C@@]2(OC)CC[C@@]3(C[C@@H]2[C@](C)(O)C(C)(C)C)[C@H]1C5 [I1•HCl, (2S)-2-[(5R, 6R, 7R, 14S)—N-(cyclopropyl-dideuteromethyl)-4,5-epoxy-6, 14-ethano-3-hydroxy-6-methoxymorphinan-7-yl]-3,3-dimethylbutan-2-ol] | 36.31 ± 2.78 | 149.19 ± 36.88 | 19 ± 7.29 | 6.54 ± 2.96
CO[C@]12CC[C@@]3(C[C@@H]1[C@](C)(O)C(C)(C)C)[C@H]1Cc4ccc(O)c5c4[C@@]3(CCN1CC1CC1)[C@H]2O5 [buprenorphine•HCl, (2S)-2-[(5R, 6R, 7R, 14S)—N-cyclopropylmethyl-4,5-epoxy-6, 14-ethano-3-hydroxy-6-methoxymorphinan-7-yl]-3,3-di methylbutan-2-ol, reference compound] | 63.87 ± 2.16 | 277.56 ± 164.99 | > 50 | 11.8 ± 11.7
[2H]C1C([2H])[C@]23C[C@H]([C@](C)(O)C(C)(C)C)[C@@]1(OC)C1Oc4c(O)ccc5c4[C@@]12CCN(CC1CC1)[C@@H]3C5 (stereo partly drawn) [I7•HCl, (2S)-2-[(5R, 6R, 7R, 14S)—N-(cyclopropyl-methyl)-4,5-epoxy-6,14-dideuteroethano-3-hydroxy-6-methoxymorphinan-7-yl]-3,3-dimethylbutan-2-ol] |  |  | 38 ± 19.7 | 12 ± 11.7
[2H]c1c([2H])c2c3c(c1O)O[C@H]1[C@@]4(OC)CC[C@@]5(C[C@@H]4[C@](C)(O)C(C)(C)C)[C@@H](C2)N(CC2CC2)CC[C@]315 [I5•HCl, (2S)-2-[(5R, 6R, 7R, 14S)-1,2-dideutero-N-cyclopropylmethyl-4,5-epoxy-6,14-ethano-3-hydroxy-6-methoxymorphinan-7-yl]-3,3-dimethylbutan-2-ol] |  |  | 31.1 ± 10.9 | 8.02 ± 11.3
[2H]c1c([2H])c2c3c(c1O)O[C@H]1[C@@]4(OC)CC[C@@]5(C[C@@H]4[C@](C)(O)C(C)(C)C)[C@@H](C2)N(C([2H])([2H])C2CC2)CC[C@]315 [I6•HCl, (2S)-2-[(5R, 6R, 7R, 14S)-1,2-dideutero-N-(cyclopropyl-dideuteromethyl)-4,5-epoxy-6,14-ethano-3-hydroxy-6-methoxymorphinan-7-yl]-3,3-dimethylbutan-2-ol] |  |  | 18 ± 8.56 | 5.83 ± 2.23
